According to US20100099640A1, “TISSUE DEGENERATION PROTECTION” (priority 2007, published 2010):

Experiments:
3T3-L1 adipocytes = experiment: Triglyceride (Oil red O) accumulation during differentiation of 3T3-L1 adipocytes; format: cell-based, mouse; settings: for triglyceride accumulation in adipocytes: 50-micromolar (lowest concentration), added during the 7-days differentiation process; for lipid deposition (triglyceride accumulation) in adipocytes: 200-micromolar (4x higher concentration), added during differentiation, steviol dissolved with DMSO
Protocol: 3T3-L1 mouse preadipocytes were purchased from the American Type Culture Collection (ATCC). They are cultivated in DHG medium (Dulbecco's modified Eagle's medium+High Glucose 4.5 g/l, GibcoBRL) supplemented with 10% FCS (foetal calf serum, GibcoBRL) and incubated a 37 C+5% CO2 incubator in a humidified atmosphere. For pre-adipocyte differentiation, 3T3-L1 cells were seeded at 50% confluence 3 days before the beginning of the differentiation programme. Confluent cell monolayers (day 0) are switched for 48 h to media containing the adipogenic cocktail: “DHG-L1” medium (DHG that contains 1.5 g/l NaHCO3) supplemented with 10% FCS, 5 μg/ml insulin, 300 μM dibutyryl-cyclicAMP (dbcAMP) and 1 μM dexamethasone. The cells were then refeeded every other day with DHG-L1 containing 10% FCS and 5 μg/ml insulin. At the end, 80-90% of cells were differentiated. […]
To characterize the state of (de)differentiation obtained in the presence of the molecules of interest, triglycerides present in the cells were stained with Oil red O (a dye of the neutral lipids). The absorbance of cell monolayers at 490 nm was measured in a spectrophotometer.

[1] = system: atherosclerotic plaques of DKO mice; experiment: Atherosclerosis: morphometric and immunohistochemical analysis of aortic root cross sections of DKO mice; format: in vivo, mouse; settings: 12 weeks
Protocol: Homozygous LDL-receptor-knockout mice (LDLR^(−/−)), heterozygous ob/+, and C57BL6 mice were purchased from Jackson Laboratory, Bar Harbor, Me. LDLR^(−/−) mice were backcrossed into a C57BL6 background to the 10th generation. To obtain DKO mice with combined leptin deficiency (ob/ob) and LDL-receptor deficiency, LDLR^(−/−) and ob/+ mice were crossed. All offspring were genotyped by polymerase chain reaction (PCR) techniques. All mice were housed at 22° C. on a fixed 12/12-hour light/dark cycle. Experimental procedures in animals were performed in accordance with protocols approved by the Institutional Animal Care and Research Advisory Committee. All mice were fed standard chow containing 4% fat (Pavan Service). Food intake was ≈5.7 g/d. Mice (about 50 g) were treated with stevioside (N=14; 10 mg/kg), steviol (N=9; 5 mg/kg) or placebo (N=17) for 12 weeks between 12 and 24 weeks of age. Stevioside (Molecular weight: 804) was dissolved in water (1 mg/ml) and 500 μl of the solution was administered orally. Steviol (Molecular weight: 318) was dissolved in water containing 6% NaHCO3 (1 mg/ml) and 250 μl of the solution was administered orally.
The extent of atherosclerosis was determined by analysis of cross sections from the aortic root. Approximately ten 7-μm frozen sections per staining per animal were used for morphometric and immunohistochemical analysis. Total plaque areas were measured on hematoxylin and eosin stained sections. Lipids were stained with oil-red O, and macrophage areas were stained with an antibody against mouse Mac-3 antigen (Pharmingen), and oxidized LDL with the monoclonal antibody 4E6. Blinded analysis of positive immunostained sections was performed with the Quantimet600 image analyzer (Leica).

[2] = cited from earlier work
[3] = system: everted gastrointestinal sacs of rats and Caco-2 cell layers; settings: free steviol formed in the colon; cited from earlier work
[4] = system: mouse pancreatic islets, β-cell line INS-1; settings: direct action on β-cells; cited from earlier work
[5] = steviol 5 mg/kg vs stevioside 10 mg/kg orally
[6] = stevioside 10 mg/kg or steviol 5 mg/kg orally

Compound	triglyceride accumulation in adipocytes (3T3-L1 adipocytes)	SMC content of plaques, compared to stevioside [1, 5]	plaque lipids, compared to stevioside [1, 5]	lipid deposition in plaques [1, 6]	macrophage deposition in plaques [1, 6]	oxLDL deposition in plaques [1, 6]	plaque volume [1, 6]	smooth muscle cell (SMC)-to-macrophage ratio (proxy for plaque stability) [1, 6]	lipid deposition (triglyceride accumulation) in adipocytes (3T3-L1 adipocytes)	transformation by human microsomes relative to rat microsomes ([2]; human vs rat liver microsomes)	transformation of steviol by human microsomes ([2]; in vitro incubation with human liver microsomes)	absorption of free steviol [3]	insulin secretion [4]
C=C1C[C@@]23CC[C@H]4[C@@](C)(CCC[C@@]4(C)C(=O)OC4OC(C(=O)O)C(O)C(O)C4O)[C@@H]2CC[C@]1(O)C3 (stereo partly drawn) [steviol glucuronide, steviol-19-O-β-D-glucuronide]	inhibited significantly	–	–	–	–	–	–	–	–	–	–	–	–
C=C1C[C@@]23CC[C@H]4[C@@](C)(CCC[C@@]4(C)C(=O)O)[C@@H]2CC[C@]1(O)C3 [steviol, Kaur-16-en-18-oic acid, 13-hydroxy-, (4α)-]	did not significantly reduce	increased somewhat more	decreased somewhat more	reducing	reducing	reducing	lowered	increased	did not have an effect	about 4 times lower	very low	easily absorbed	stimulation of insulin secretion
Kaur-16-en-18-oic acid, 13-[(O-b-D-glucopyranosyl-(1→2)-O-[b-D-glucopyranosyl-(1→3)]-b-D-glucopyranosyl)oxy]-, b-D-glucopyranosyl ester, (4a)- [rebaudioside]	did not significantly reduce	–	–	–	–	–	–	–	inhibited	–	–	–	–
